Results taken from US11628179B2, “Compounds for treating and preventing extracellular histone mediated pathologies” (priority 2017, dated 2023).
Where “and” joins values, the source holds several entries; their conditions need not be identical. Identical values can stand only once. Counter-ions that a name gives are not always drawn.

Key:
[1] = Pharmacokinetics, intravenous bolus 100 mg/kg (plasma and urine); assay type: in vivo, rat
Method: A total of nine blood samples were collected from each rat at time points ranging from pre-dose to 192 hours post-dose. Urine samples were also collected over the first 48 hours. The resulting blood samples were processed to plasma. The urine and plasma samples were subsequently analysed for the concentration of mCBS (free-base) using LC-MS/MS based methods.

mice = test: In-vivo histone toxicity assay, organ damage markers at 4 hr; set-up: species or system mouse; details: 6.25, 25 and 100 mg/kg i.p. 10 min prior to histones 50 mg/kg i.v.; blood at 4 hr
Beagle dogs = system: Beagle dogs
Method: This study was also conducted inter alia to determine the maximum tolerated dose (MTD) of the test item, mCBS, when administered by continuous (24 hours/day) intravenous infusion through a surgically-implanted catheter for 48 hours per dose level for up to 4 dose levels to Beagle dogs.
mCBS dose formulations were administered to Beagle dogs by continuous (24 hours/day) intravenous infusion for 48 hours per dose level for up to 4 dose levels, as described in the Table 15 below.
Parameters monitored during this phase of the study included mortality, clinical observations, body weights, and food consumption. Serial blood samples were collected from each animal to confirm mCBS plasma levels at the following time points: 24 and 48 hours post start of infusion of each dose level. Blood samples were also collected from each animal for clinical pathology evaluations (hematology, coagulation, and clinical chemistry) on Day 1, prior to administration of the new dose level on Days 3, 5, and 7, and on Day 9.

whole blood coagulation = test: Inhibition of histone-induced perturbation of whole blood coagulation (ROTEM); assay type: biochemical, human; details: mCBS 200 μg/mL
Description: In comparison, the same volume of water had no effect (FIG. 19).

[2] = system: human microvascular endothelial cells (HMECs)
[3] = IV bolus 100 mg/kg as sodium salt
[4] = mCBS 100 μg/mL added prior to histones 400 μg/mL, 60 min

CO[C@@H]1O[C@H](COS(=O)(=O)O)[C@@H](O[C@@H]2O[C@H](COS(=O)(=O)O)[C@@H](OS(=O)(=O)O)[C@H](OS(=O)(=O)O)[C@H]2OS(=O)(=O)O)[C@H](OS(=O)(=O)O)[C@H]1OS(=O)(=O)O [mCBS, β-O-methyl cellobioside sulfate]
percent of total dose excreted in urine, mean (±SEM) ([1]; 0-4 h post-dosing): 52.0 (±5.0) %
percent of total dose excreted in urine, mean (±SEM) ([1]; 0-24 h post-dosing): 65.0 (±7.0) %
percent of total dose excreted in urine, mean (±SEM) ([1]; 0-48 h post-dosing): 69.2 (±10.8) %
AUCinf [1, 3]: 135,000 ng·h/mL
AUClast [1, 3]: 135,000 ng·h/mL
distribution half-life [1, 3]: 0.65 h
mean residence time (MRT) [1, 3]: 1.43 h
terminal total body clearance (Cl) [1, 3]: 10.1 mL/min/kg
volume of distribution (Vz) [1, 3]: 49.0 L/kg
concentration at time zero (C0) ([1]; IV bolus 100 mg/kg as sodium salt (81.5 mg/kg free base), pooled mean plasma data, 6 rats): 308,000 ng/mL
apparent terminal elimination half-life (T½) ([1]; IV bolus 100 mg/kg as sodium salt, 100 mg/kg): 56.1 h and ~56 h
protection from histone-induced organ damage (LDH, ALT, creatinine) (mice): protects animals from histone-mediated injury
steady-state plasma concentration (Css) at the highest dose level (Beagle dogs; 2788 mg/kg/day): higher than 300 μg/mL
maximum tolerated dose (MTD) (Beagle dogs; continuous (24 hours/day) IV infusion for 48 hours, free base corrected dose): 2788 mg/kg/day
dose-limiting toxicity (adverse clinical sign) (Beagle dogs; stepwise administration up to 2788 mg/kg/day): No dose-limiting toxicity
inhibition of histone-induced prolongation of clotting time (whole blood coagulation): able to inhibit the anticoagulant effects of both 400 and 800 μg/mL of histones
effect of increasing concentration on viable/dead cells ([2]; histones 400 μg/mL, increasing concentrations of mCBS): an increase in viable cells (Calcein-AM uptake) and a reduction in dead cells (PI uptake)
HMECs reverted from PI uptake to PI exclusion and calcein-AM uptake ([2]; histones 400 μg/ml 60 min, then mCBS 100 μg/ml for 10 min): approximately 30%
protection from histone-mediated injury ([2]; mCBS 25 μg/mL + histones 400 μg/mL): reduced level of protection
dead cells (PI uptake) [2, 4]: 20%
viable cells (calcein-AM) [2, 4]: 74%
